The text below walks through data of patent EP2764866A1, “Inhibitors of nedd8-activating enzyme” (IP Gesellschaft für Management mbH, priority 2013, dated 2014).

What is called IC50 is the point on the concentration scale where inhibition reaches its midpoint. By solubility is commonly meant how much of the substance goes into solution per volume. A high value points to a readily soluble substance. As a reminder, the pKa is the negative logarithm of the acid dissociation constant.

For data set [1] the following is noted: from COC(=O)[C@@H]1C[C@@H](Oc2nc3cc(OC)ccc3nc2C#CCCC[C@@H]2C[C@H]2OC(=O)N[C@H](C(=O)O)C(C)(C)C)CN1; amide bond; HATU; DMAc; 86.2 mM; 0.0 °C; 12.0 h.
Data set [2] relates to human c-mpl-Ba/F3 cell. Kind of data set: Mouse oral administration test (plasma activity in the c-mpl-Ba/F3 proliferation system). In kind it is in vivo, male ICR mice. The note with it: for activity at 3 mg/kg: Mus musculus, po, 2 h; for Cell proliferation activity (%) 0.3%: 0.3% blood plasma concentration; for oral absorption: conclusion from the mouse oral administration test.

The subject of data set [3] is Human c-mpl-Ba/F3 cells. Put plainly: Cell proliferation test for human c-mpl-Ba/F3 cells. The class given is cell-based. The method, then: Test Example I Cell Proliferation Test for Human c-mpl-Ba/F3 Cells: Human c-mpl-Ba/F3 cells at a concentration of 2 x 10^5 cells/mL were cultured at 37 °C on a 96 well microplate using RPMI 1640 culture medium (100 microliter/well) containing 10% fetal calf serum to which various concentrations of the test compound was added. After 24 hours from the start of culturing, 10 microliter/well of WST-1/1-methoxy PMS (cell measuring kit, Dojin) was added. Immediately after the addition and two hours later, the A450/A650 absorbance was measured using a microplate reader (Model 3350, Bio-Rad), and the increase in absorbance after 2 hours was interpreted to represent the proliferation activity of each test compound. […] Furthermore, the maximum cell proliferation activity of compound X maleic acid salt C type crystals ({drug1b}) was 102%, based on the maximum cell proliferation activity of rhTPO being 100%. […] Therefore, compound X maleic acid salt C type crystals ({drug1b}) are useful for treating and preventing various types of thrombocytopenia by having a thrombocytosis effect. […]

For data set [4], the system named is Ba/F3 cells where c-mpl was not introduced. Kind of data set: Cell proliferation test in Ba/F3 cells without c-mpl. The class given is cell-based.
Data set [5] can be described thus: Pharmacokinetics of Compound [1] in Phase I and II studies. The note with it: continuous daily dosing regimen, doses of 400 mg/day and above.
Data set [6] has as its system HCC78 cells. Put plainly: cells. The following applies: Homo sapiens, HCC78, read-out: IC50 for inhibition of HCC78 cell viability.
Data set [7] in a line: Hygroscopicity (water absorbed). The class given is physicochemical.
For data set [8] the following is noted: pH 1, compared to the free acid form.
For data set [9] the following is noted: dosed at 10mg/kg, compared to the free acid form.
The nature of data set [10]: physchem. The following applies: pH 1.2, simulated gastric fluid.
Data set [11] in a line: pKa. The class given is physicochemical. From the text: Suitable alkalizing agents include but are not limited to organic and inorganic basic compounds of a wide range of aqueous solubilities and molecular weights and mixtures thereof. Examples of inorganic basic salts include ammonium hydroxide, alkali metal salts, alkaline earth metal salts such as magnesium oxide, magnesium hydroxide, calcium hydroxide, sodium hydroxide, potassium hydroxide, aluminium hydroxide, potassium carbonate, sodium bicarbonate and the like and mixtures thereof. In particular, an alkalizing agent is selected from magnesium oxide, calcium carbonate, calcium phosphate and combinations thereof. More particularly, the alkalizing agent is magnesium oxide. […] Examples of precipitation inhibitors include but are not limited to polyvinyl pyrrolidone, for example those products known as PVP K30, PVP K29/32 and PVPP XL, and hydroxy propyl methyl cellulose (HPMC), for example those products known as […]® low viscous hypromellose-based water-soluble film coating agent. […] As used herein, the term "oral dosage form" refers to physically discrete units suitable as unitary dosages for humans and other mammals, each unit containing a predetermined quantity of a therapeutic agent in association with one or more pharmaceutically acceptable carrier. […]

Where [12] appears, read: 3 mg/kg orally, blood 2 hours after administration, maximum activity of each test compound = 100%.

Converted amounts (≈) assume the structure as drawn. Structures can show the parent of a compound that is named as a salt. Where two headings read alike, the source gives them in different places.

For `COC(=O)[C@@H]1C[C@@H]2CN1C(=O)[C@H](C(C)(C)C)NC(=O)O[C@@H]1C[C@H]1CCCC#Cc1nc3ccc(OC)cc3nc1O2`, the ring closure, yield of all isomers in data set [1] turned out to be 88.6%.
In the case of `O=C(Nc1nc(-c2cc(Cl)cs2)c(N2CCN(C3CCCCC3)CC2)s1)c1cnc(N2CCC(C(=O)O)CC2)c(Cl)c1` [1-(3-chloro-5-{[4-(4-chlorothiophen-2-yl)-5-(4-cyclohexylpiperazin-1-yl)thiazol-2-yl]carbamoyl}pyridin-2-yl) piperidine-4-carboxylic acid maleic acid salt, reference compound], in data set [2] (3 mg/kg orally, blood 2 hours after administration, 10% blood plasma concentration, maximum activity of each test compound = 100%, read-out: Cell proliferation activity (%) 10%), the activity at 3 mg/kg is > 80%.
For `O=C(Nc1nc(-c2cc(Cl)cs2)c(N2CCN(C3CCCCC3)CC2)s1)c1cnc(N2CCC(C(=O)O)CC2)c(Cl)c1` [1-(3-chloro-5-{[4-(4-chlorothiophen-2-yl)-5-(4-cyclohexylpiperazin-1-yl)thiazol-2-yl]carbamoyl}pyridin-2-yl) piperidine-4-carboxylic acid maleic acid salt], the activity at 3 mg/kg in [2] (3 mg/kg orally, blood 2 hours after administration, 0.1% blood plasma concentration, maximum activity of each test compound = 100%, read-out: Cell proliferation activity (%) 0.1%) stood at 30%. For the same compound, the EC50 in data set [3] (Homo sapiens, 24 hours culture, WST-1/1-methoxy PMS readout, read-out: cell proliferation effect, EC50) was 2 nM.
For the compound `O=C(Nc1nc(-c2cc(Cl)cs2)c(N2CCN(C3CCCCC3)CC2)s1)c1cnc(N2CCC(C(=O)O)CC2)c(Cl)c1` [Compound X hydrochloride, reference compound], in [2] (setting [12]), the “Cell proliferation activity (%) 0.3%” value is recorded as < 10%. For the same compound, the “Cell proliferation activity (%) 10%” value in data set [2] (3 mg/kg orally, blood 2 hours after administration, 10% blood plasma concentration, maximum activity of each test compound = 100%) was 34%.
For `O=C(Nc1nc(-c2cc(Cl)cs2)c(N2CCN(C3CCCCC3)CC2)s1)c1cnc(N2CCC(C(=O)O)CC2)c(Cl)c1.O=C(O)/C=C\C(=O)O` [Compound X maleic acid salt A type crystal] [1-(3-chloro-5-{[4-(4-chlorothiophen-2-yl)-5-(4-cyclohexylpiperazin-1-yl)thiazol-2-yl]carbamoyl}pyridin-2-yl) piperidine-4-carboxylic acid maleic acid salt, reference compound], the “Cell proliferation activity (%) 0.3%” value in [2] (setting [12]) is reported as 55%. For the same compound, the oral absorption result in data set [2] (listed as compound X maleic acid salt A type crystals) was “excellent oral absorption”.
Regarding `O=C(Nc1nc(-c2cc(Cl)cs2)c(N2CCN(C3CCCCC3)CC2)s1)c1cnc(N2CCC(C(=O)O)CC2)c(Cl)c1.O=C(O)/C=C\C(=O)O` [Compound X maleic acid salt B type crystal] [1-(3-chloro-5-{[4-(4-chlorothiophen-2-yl)-5-(4-cyclohexylpiperazin-1-yl)thiazol-2-yl]carbamoyl}pyridin-2-yl) piperidine-4-carboxylic acid maleic acid salt], the “Cell proliferation activity (%) 0.3%” value in data set [2] (setting [12]) was < 10%. Besides, in data set [2] (listed as compound X maleic acid B type crystals), the oral absorption entry was “inferior oral absorption”.
As to `O=C(Nc1nc(-c2cc(Cl)cs2)c(N2CCN(C3CCCCC3)CC2)s1)c1cnc(N2CCC(C(=O)O)CC2)c(Cl)c1.O=C(O)/C=C\C(=O)O` [Compound X maleic acid salt C type crystal] [1-(3-chloro-5-{[4-(4-chlorothiophen-2-yl)-5-(4-cyclohexylpiperazin-1-yl)thiazol-2-yl]carbamoyl}pyridin-2-yl) piperidine-4-carboxylic acid maleic acid salt], the “Cell proliferation activity (%) 0.3%” value in data set [2] (setting [12]) is recorded as > 80%. For the same compound, the oral absorption entry in [2] was “excellent oral absorption”. In data set [4], the cell proliferation effect result is listed as “not observed”. In addition, the “maximum cell proliferation activity” value in data set [3] (based on the maximum cell proliferation activity of rhTPO being 100%) is 102%.
As to `CN1CCN(c2ccc3nc(-c4c(N)c5c(F)cccc5[nH]c4=O)[nH]c3c2)CC1` [Compound [1]], the exposure result in [5] is “prolonged over-proportional exposure”.
In the case of `C[C@@H](Oc1cc(-c2cnn(C3CCNCC3)c2)cnc1N)c1c(Cl)ccc(F)c1Cl` [Crizotinib, 3-[(R)-1-(2,6-dichloro-3-fluoro-phenyl)-ethoxy]-5-(1-piperidin-4-yl-1-H -pyrazol-4-yl)-pyridin-2-ylamine], the IC50 in [6] was ~59 nM.
For the compound `CCC(CC)Nc1c(Nc2ccc(Cl)c(S(=O)(=O)N(C)OC)c2O)c(=O)c1=O` [choline salt, 6-chloro-3-[2-(1-ethyl-propylamino)-3,4-dioxo-cyclobut-1-enylamino]-2-hydroxy-N-methoxy-N-methyl-benzenesulfonamide choline], the “amount of water absorbed” value in data set [7] (after 1 day at 80% humidity) was determined as 0.7 % by weight; in data set [7] (after 1 day at 92% humidity), 0.6 % by weight. For the same compound, the dissolution rate result in data set [8] is “much improved”. In addition, the oral exposure result in data set [9] is recorded as “much improved”.
On to `CCC(CC)Nc1c(Nc2ccc(Cl)c(S(=O)(=O)N(C)OC)c2O)c(=O)c1=O` [free acid, 6-chloro-3-[2-(1-ethyl-propylamino)-3,4-dioxo-cyclobut-1-enylamino]-2-hydroxy-N-methoxy-N-methyl-benzenesulfonamide, reference compound], for which the solubility in [10] is 1 µg/mL (≈ 2.32 µM). Also, the “amount of water absorbed” value came out at 2.4 % by weight in data set [7] (after 1 day at 80% humidity) and 2.8 % by weight in [7] (after 1 day at 92% humidity). The pKa in data set [11] worked out at 5.4.
